From patent US20090286831A1, “VR1 Receptor Ligands and u-Opioid Receptor Ligands for the Treatment of Pain” (priority 2006, published 2009) come the findings set out here.

What is called Ki is a dissociation constant, usually derived from enzyme kinetics or from competition with a known ligand. What is called IC50 is the concentration at which inhibition is half-maximal. A lower IC50 goes with higher potency.

Marks after values point to notes of the source that are not given here.

Experiment [1] relates to rats. As to the kind of experiment: Tail-flick (hot beam) test in rats. The format is in vivo, rat.
Experiment [2] deals with rats. As to the kind of experiment: Tail-flick (hot beam) test in rats. In kind it is in vivo, rat. How it is done:
(§1) Sprague Dawley rats (140-160 g body weight) were used for the following animal models. Sprague Dawley rats (140-160 g body weight) from a commercial breeder (Janvier, Genest St. Isle, France) were used. The animals were kept under standard conditions: light-dark rhythm (06:00 to 18:00 h light, 18:00 to 06:00 h dark), room temperature 19-23° C., relative air humidity 45-65%, air exchange 19 times per hour, air movement <0.2 m/s, free choice of tap water and standard feed, Macrolon Type 4 cages with 5 animals per cage. The solutions of the test substances and/or vehicles (10% […], 5% Cremophor EL, 5% glucose) were administered intravenously.
The analgesic efficacy of the test compounds was examined in the hot beam (tail flick) test in rats using the method of D'Amour and Smith (J. Pharm. Exp. Ther. 1941, 72, 74-79). The time from switching on the lamp (8V/50 W) to the sudden flicking away of the tail from the hot beam (pain latency) was measured by means of a semiautomatic apparatus (tail-flick Analgesiemeter Type 50/08/1.bc, Labtec, Dr. Hess, Germany). The lamp intensity was adjusted before conducting the experiments so that the time from switching on the lamp to the sudden flicking away of the tail (pain latency) amounted to 3-5 seconds in untreated animals. The lamp was automatically switched off after 12 seconds to avoid tissue damage to the rat's tail. The pain latency was measured 10, 20, 40 and 60 min after intravenous administration. The analgesic effect was determined as increase in pain latency (% MPE) according to the following formula: […]
In this case, T0 is the latency time before and T1 the latency time after substance application, T2 is the maximum exposure time (12 sec). Results of the analgesia study in the tail-flick test in rats:
The following experiments of Example 2 relate to binding studies and the analgesic efficacy of the compounds with dual mode of action according to the invention. The experiments comprise the determination of the (f)Ki value at the TPRV1 receptor, the Ki value at the μ-opioid receptor and the hypothermia assay in mice. The tail-flick test for the compounds [1], [4], [7] and [10] according to the invention was conducted in a similar manner to the above-described method (cf. Example 1, experiment 1).
The source holds these as a separate data set.

The subject of experiment [3] is rats after spinal nerve ligature. As to the kind of experiment: Mono-neuropathic pain after spinal nerve ligature (Chung model), electronic von Frey. In kind it is in vivo, rat. The method, then: as §1
Under pentobarbital narcosis (Narcoren®, […] i.p., Merial GmbH, Hallbergmoos, Germany), the L5, L6 spinal nerves were firmly bound. The left L5 and L6 spinal nerves were exposed by removing a piece of paravertebral muscle and a portion of the left spinal process of the L5 lumbar vertebral body. The L5 and L6 spinal nerves were carefully isolated and bound with a firm ligature (NC silk, black, USP 5/0, metric 1, Braun Melsungen AG, Melsungen, Germany) (Kim and Chung, An experimental model for peripheral neuropathy produced by segmental spinal nerve ligature in the rat, Pain, 50, 1992, 355-363). After haemostasis was determined, the muscle and adjacent tissue were sutured and the wound closed by metal clamps. After a one-week recovery period the animals were placed in cages with a wire base closed to the top by a plastic hood for measurement of the mechanical allodynia. The animals were kept in this cage until their explorative behaviour had decreased.
The threshold for the tactile allodynia was measured by means of an electronic von Frey anaesthesiometer (Somedic AB, Malmö, Sweden). The animals were randomly divided into groups of 10 animals. Each group received an individual dose of test substance or vehicle and the measurements were conducted 0.5 h before application and at various times after intravenous administration. Both the ipsi- and the contra-lateral rear paw were tested. The median of five stimulations gave a measured data point. The data were determined as % maximum possible effect (% MPE) from the pre-tests of the Chung individual animals (=0% MPE) and the test values of an independent sham control group (=100% MPE). The effect of the test substance and the vehicle was calculated for each measurement time (i.e. 0.5, 1 and 3 h after application) as inter-individual % MPE value. […] The corresponding threshold values are given in gram (mean±SEM).

Experiment [4] has as its target T1, vanilloid receptor 1 (VR1/TRPV1) (Homo sapiens, UniProt Q8NER1).
T1 construct: expressed in transfected cells; host or cells: CHO K1 cells (ECACC), stably transfected
As to the kind of experiment: FLIPR capsaicin assay. In kind it is cell-based, human or rat. The settings on record: functional Ki, capsaicin 100 nM, VR1-transfected CHO K1 cells, modified Cheng-Prusoff; read-out: f(Ki) (VR1). The source says:
(§2) The agonist or antagonist effect of substances can be determined at the vanilloid receptor 1 (VR1/TRPV1) of the human and rat species with the assay described below. Accordingly, the Ca^2+ influx through the channel is quantified by means of a Ca^2+-sensitive dye (Fluo-4, Molecular Probes Europe BV, Leiden, The Netherlands) in the fluorescent imaging plate reader (FLIPR, Molecular Devices, Sunnyvale, USA).
(§3) Chinese hamster ovary cells (CHO K1 cells, ECACC, England) are stably transfected with human or rat VR1 cDNA. For functional studies these cells are plated onto poly-D-lysine-coated black 96-hole plates with a clear base (BD Biosciences, Heidelberg, Germany) in a density of 25 000 cells/cavity. The cells are incubated overnight at 37° C. with 5% CO2 in culture medium (nutrient mixture Ham's F12, Gibco Invitrogen GmbH, Karlsruhe, Germany) with 10% vol. FBS (foetal bovine serum, Gibco Invitrogen GmbH, Karlsruhe, Germany) and 18 μg/ml of L-proline (Gibco Invitrogen GmbH, Karlsruhe, Germany). On the following day, the cells are laden with 2 μM Fluo-4 and 0.01% vol. Pluronic F127 (Molecular Probes Europe BV, Leiden, The Netherlands) in HBSS buffer (Hank's buffered saline solution, Gibco Invitrogen GmbH, Karlsruhe, Germany) for 30 min at 37° C. The plates are then washed 3 times in HBSS buffer and after further incubation for 15 minutes at room temperature are placed in the FLIPR for the Ca^2+ measurement. In this case, the Ca^2+-dependent fluorescence is measured before and after the addition of substances (λex=488 nm, λem=540 nm). Quantification occurs as a result of the measurement of the highest fluorescence intensity (FC, fluorescence counts) over time.
The FLIPR protocol consists of 2 substance additions. Test substances (10 μM) are firstly pipetted onto the cells and the Ca^2+ influx is compared to the control (capsaicin 10 μM). This gives the specification in % activation in relation to the Ca^2+ signal after adding 10 μM of capsaicin. After 5 minutes incubation 100 nM of capsaicin are applied and the influx of Ca^2+ likewise determined. Desensitising agonists and antagonists lead to a suppression of the Ca^2+ influx. Inhibition values [%] are calculated in comparison to the maximum achievable inhibition with a saturating concentration of […] or another reference antagonist. The test substance is added in different concentrations to determine the IC50 and functional Ki value ((f)Ki). Triple determinations (n=3) are conducted and these are repeated in at least one further independent experiment (N>=2). A capsaicin dose action curve is generated to incorporate the thus determined EC50 values into the associated (f)Ki determination. EC50/IC50 values are calculated using ‘Prism4’ software from GraphPad Software™ or with XLfit4™ (ID Business Solutions Ltd.). (f)Ki values are calculated in accordance with the modified Cheng-Prusoff equation (Cheng, Prusoff; Biochem. Pharmacol. 22, 3099-3108, 1973). Testing for non-specific inhibition of the fluorescence as a result of the substances is conducted by activating wild type CHO K1 cells incubated with the same test substances with ATP (10 μM final concentration).

In experiment [5] the target is T2, human recombinant μ-opioid receptor (Homo sapiens, UniProt P35372).
T2 construct: expressed in transfected cells; host or cells: CHO-K1 cells (membrane preparation)
Kind of experiment: Ki value at the μ-opioid receptor (Experiment 4). In kind it is binding.

The next experiment addresses T3, human VR1 (Homo sapiens, UniProt Q8NER1).
T3 construct: expressed in transfected cells; host or cells: CHO K1 cells (ECACC), stably transfected
As to the kind of experiment: FLIPR pH assay. In kind it is cell-based.
Description: as §2, §3
In the pH assay, HBSS that now contains 60 mM MES instead of capsaicin is applied to human VR1-transfected CHO K1 cells (adjusted pH value of the addition solution is 4.95). Percentage inhibition and IC50 values are raised and evaluated as already described for the capsaicin test.

Where [6] appears, read: AMG-9810 2.15 mg/kg i.v. group, Control (pre-test 0.5 h before application).
Setting [7] is: AMG-9810 2.15 mg/kg i.v., 30 min.
[8] abbreviates: AMG-9810 2.15 mg/kg i.v., 60 min.
The mark [9] stands for this setting: AMG-9810 2.15 mg/kg i.v., 180 min.
Setting [10] is: Morphine 1.0 mg/kg i.v. group, Control (pre-test 0.5 h before application).
[11] abbreviates: Morphine 1.0 mg/kg i.v., 30 min.
[12] abbreviates: Morphine 1.0 mg/kg i.v., 60 min.
Setting [13] is: Morphine 1.0 mg/kg i.v., 180 min.
Setting [14] is: Morphine 2.0 mg/kg i.v. group, Control (pre-test 0.5 h before application).
Where [15] appears, read: Morphine 2.0 mg/kg i.v., 30 min.
Setting [16] is: Morphine 2.0 mg/kg i.v., 60 min.
Setting [17] is: Morphine 2.0 mg/kg i.v., 180 min.

T3 sequence (Q8NER1 whole entry): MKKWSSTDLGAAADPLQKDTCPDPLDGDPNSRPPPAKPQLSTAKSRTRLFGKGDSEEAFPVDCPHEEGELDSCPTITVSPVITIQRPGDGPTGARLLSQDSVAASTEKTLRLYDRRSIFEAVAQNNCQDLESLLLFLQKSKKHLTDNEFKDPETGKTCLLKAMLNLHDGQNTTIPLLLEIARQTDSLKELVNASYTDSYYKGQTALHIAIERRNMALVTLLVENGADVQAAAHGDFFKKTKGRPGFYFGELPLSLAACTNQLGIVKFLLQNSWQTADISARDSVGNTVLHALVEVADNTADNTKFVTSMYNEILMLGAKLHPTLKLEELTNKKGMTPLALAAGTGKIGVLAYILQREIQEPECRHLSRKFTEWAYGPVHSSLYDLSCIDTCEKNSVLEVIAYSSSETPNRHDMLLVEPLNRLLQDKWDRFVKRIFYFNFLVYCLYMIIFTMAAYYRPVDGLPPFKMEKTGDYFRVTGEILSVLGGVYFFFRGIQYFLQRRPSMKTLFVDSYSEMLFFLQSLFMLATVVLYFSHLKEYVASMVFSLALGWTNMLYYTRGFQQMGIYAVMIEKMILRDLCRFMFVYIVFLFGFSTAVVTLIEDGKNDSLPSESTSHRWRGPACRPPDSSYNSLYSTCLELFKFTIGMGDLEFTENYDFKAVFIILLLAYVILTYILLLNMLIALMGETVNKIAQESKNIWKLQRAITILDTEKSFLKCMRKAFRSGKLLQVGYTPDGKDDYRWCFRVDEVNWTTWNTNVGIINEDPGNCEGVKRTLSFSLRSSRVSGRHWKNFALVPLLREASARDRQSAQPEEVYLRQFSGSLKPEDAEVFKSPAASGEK
T1 sequence (Q8NER1 whole entry): as above
T2 sequence (P35372 whole entry): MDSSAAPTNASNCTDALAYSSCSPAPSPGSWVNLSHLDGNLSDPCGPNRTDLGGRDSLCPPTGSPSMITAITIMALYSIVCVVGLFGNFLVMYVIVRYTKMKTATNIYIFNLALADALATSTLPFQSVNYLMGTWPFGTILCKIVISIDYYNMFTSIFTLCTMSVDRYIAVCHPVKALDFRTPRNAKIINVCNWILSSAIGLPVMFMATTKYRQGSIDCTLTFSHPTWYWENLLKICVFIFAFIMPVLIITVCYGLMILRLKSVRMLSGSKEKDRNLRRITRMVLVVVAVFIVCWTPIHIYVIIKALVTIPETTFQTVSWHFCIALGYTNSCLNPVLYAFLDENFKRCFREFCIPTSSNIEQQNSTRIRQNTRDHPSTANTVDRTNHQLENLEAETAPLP

`CC(C)(C)c1ccc(/C=C/C(=O)Nc2ccc3c(c2)OCCO3)cc1` [AMG-9810]: the “% MPE (increase in pain latency), mean” value is given as 4.38 % MPE with rats [1] (AMG-9810 10 mg/kg i.v., 40 min); 26.36 % MPE in the experiment on rats [2] (AMG-9810 10 mg/kg i.v., 10 min); 11.44 % MPE with rats [2] (AMG-9810 10 mg/kg i.v., 20 min); −4.06 % MPE in the experiment with rats [2] (AMG-9810 10 mg/kg i.v., 60 min). Also, the “pull-away threshold value, contra-lateral rear paw, mean” value in experiment [3] (setting [6]) is 57.79 gram; in experiment [3] (setting [7]), 55.91 gram; in experiment [3] (setting [8]) it was 52.4 gram; in experiment [3] (setting [9]), 57.38 gram. In addition, the “pull-away threshold value, ipsi-lateral rear paw, mean” value is given as 23.23 gram in experiment [3] (setting [6]), 32.27 gram in experiment [3] (setting [7]), 31.18 gram in experiment [3] (setting [8]) and 26.94 gram in experiment [3] (setting [9]).
As for `CN1CC[C@]23c4c5ccc(O)c4O[C@H]2[C@@H](O)C=C[C@H]3[C@H]1C5` [Morphine, morphine], the “% MPE (increase in pain latency), mean” value is reported as 23.62 % MPE with rats [1] (Morphine 0.4 mg/kg i.v., 20 min); 14.1 % MPE in the experiment with rats [1] (Morphine 0.4 mg/kg i.v., 40 min); 45.31 % MPE with rats [1] (Morphine 0.8 mg/kg i.v., 10 min); 45.02 % MPE in the experiment on rats [1] (Morphine 0.8 mg/kg i.v., 20 min); 25.86 % MPE with rats [1] (Morphine 0.8 mg/kg i.v., 40 min); 14.62 % MPE in the experiment with rats [1] (Morphine 0.8 mg/kg i.v., 60 min). The “% MPE (increase in pain latency), mean” value is 26.51 % MPE with rats [2] (Morphine 0.4 mg/kg i.v., 10 min) and 4.23 % MPE in the experiment on rats [2] (Morphine 0.4 mg/kg i.v., 60 min). Moreover, in the experiment with rats [2] (combination of two threshold doses of the same opioid), the “antinociceptive efficacy (conclusion)” value was “additive antinociceptive efficacy”. Also, the “pull-away threshold value, contra-lateral rear paw, mean” value in experiment [3] (setting [10]) came out at 56.81 gram; in experiment [3] (setting [11]), 67.87 gram; in experiment [3] (setting [12]), 60.95 gram; in experiment [3] (setting [13]), 54.63 gram; in experiment [3] (setting [14]), 58.39 gram; in experiment [3] (setting [15]) it was 82.83 gram. The entries for the “pull-away threshold value, contra-lateral rear paw, mean” value in experiment [3] (setting [16]) and in experiment [3] (setting [17]) were 74.68 gram and 59.93 gram, respectively. Also, the “pull-away threshold value, ipsi-lateral rear paw, mean” value in experiment [3] (setting [10]) came out at 23.63 gram; in experiment [3] (setting [11]) it was 32.13 gram; in experiment [3] (setting [12]), 27.65 gram; in experiment [3] (setting [13]), 30.67 gram; in experiment [3] (setting [14]) it was 24.37 gram; in experiment [3] (setting [15]), 48.44 gram. Moreover, the results for the “pull-away threshold value, ipsi-lateral rear paw, mean” value in experiment [3] (setting [16]) and in experiment [3] (setting [17]) were 44.87 gram and 39.19 gram, respectively. Also, in experiment [3] (combination of two threshold doses of the same opioid, pull away increased on ipsi- and contra-lateral paw), the “efficacy (conclusion)” value was “additive antinociceptive efficacy”.
As to `CC(C(=O)NCc1ccc(C(F)(F)F)nc1N1CCC(c2ccccc2)(N(C)C)CC1)c1ccc(NS(C)(=O)=O)c(F)c1` (stereo not drawn) [[1], N-((2-(4-(dimethylamino)-4-phenylpiperidin-1-yl)-6-(trifluoromethyl)pyridin-3-yl)methyl)-2-(3-fluoro-4-(methylsulfonamido)phenyl)propanamide], in the experiment with rats [1] (dosage 1 mg/kg p.o.), the “Tail-Flick [% MPE]” value worked out at 50%^2) % MPE. Further, the Ki was determined as 0.0313 µM in experiment [4] and 0.046 µM in experiment [5]. Further, the IC50 at human VR1 amounted to 0.806 µM.
